Assay results from patent US20130272963A1, “Cholesterol Efflux Assay Probe Formulations, Methods of Making and Using” (THE OHIO STATE UNIVERSITY, priority 2012, published 2013).

Test: Drug loading of CHEAP formulation
Conditions: hydrophobic model drugs loaded into CHEAP
Experimental: The intracellular delivery of hydrophobic drugs was conducted using a CHEAP formulation vehicle. Loading, as well as stability, of the drug-loaded CHEAP formulations was investigated on three different hydrophobic drugs. Rosiglitazone (RSG), Paclitaxel (PAX), and Tamoxifen (TAM) were used as model drugs for loading (FIG. 6A).

| SMILES | binding affinity towards the CHEAP formulation |
| --- | --- |
| CC(=O)O[C@H]1C(=O)[C@@]2(C)[C@H]([C@H](OC(=O)c3ccccc3)[C@]3(O)C[C@H](OC(=O)[C@H](O)[C@@H](NC(=O)c4ccccc4)c4ccccc4)C(C)=C1C3(C)C)[C@]1(OC(C)=O)CO[C@@H]1C[C@@H]2O [PAX, Paclitaxel] | high binding affinity |
| CC/C(=C(\c1ccccc1)c1ccc(OCCN(C)C)cc1)c1ccccc1 [TAM, Tamoxifen] | high binding affinity |
